Each compound was assayed against T1, Cysteinyl leukotriene receptor 1 (Cavia porcellus, UniProt Q2NNR5) (assay: In vitro binding affinity towards Cysteinyl leukotriene D4 receptor by using [3H]LTD4 binding assay in guinea pig lung membranes).
T1 sequence (Q2NNR5 whole entry): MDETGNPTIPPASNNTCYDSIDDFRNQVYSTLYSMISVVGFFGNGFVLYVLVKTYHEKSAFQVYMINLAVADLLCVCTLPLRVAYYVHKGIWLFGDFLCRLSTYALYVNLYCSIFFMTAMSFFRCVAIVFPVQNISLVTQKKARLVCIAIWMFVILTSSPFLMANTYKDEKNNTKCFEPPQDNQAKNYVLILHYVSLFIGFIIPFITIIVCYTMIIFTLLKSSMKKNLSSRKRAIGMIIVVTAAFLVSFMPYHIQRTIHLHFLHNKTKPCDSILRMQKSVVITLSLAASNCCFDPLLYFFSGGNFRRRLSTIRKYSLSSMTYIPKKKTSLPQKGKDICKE
Format: cell membranes, Membrane
Compound O=C(Nc1cccc2c(=O)cc(C(=O)O)oc12)c1ccc(OCc2ccc3ccccc3n2)cc1 has a Ki of 0.168 µM.
Cc1ccccc1S(=O)(=O)NC(=O)c1ccc(CCNC(=O)c2ccc3ccc(OCc4ccc5ccccc5n4)cc3c2)cc1 showed a Ki of 0.015 µM.
CC(C(=O)Nc1ccc(CCCC(=O)O)cc1)c1ccc2cc(OCc3ccc4ccccc4n3)ccc2c1 (stereo not given) showed a Ki of 0.038 µM.
O=C(O)Cc1ccc(CCNS(=O)(=O)c2ccc3ccc(OCc4ccc5ccccc5n4)cc3c2)cc1 was tested, and the Ki was 0.0024 µM.
O=C(O)CCCc1ccc(NC(=O)Cc2ccc(OCc3ccc4ccccc4n3)cc2)cc1 showed a Ki of 0.0073 µM.
Work on CC(C(=O)NCCCCC(=O)O)c1ccc2cc(OCc3ccc4ccccc4n3)ccc2c1 (stereo not given) yielded a Ki of 0.36 µM.
For O=C(O)c1ccc(CCNC(=O)C2CCc3ccc(OCc4ccc5ccccc5n4)cc3O2)cc1 (stereo not given), the Ki was 0.237 µM.
For O=C(O)c1ccc(CCNS(=O)(=O)c2ccc3ccc(OCc4ccc5ccccc5n4)cc3c2)cc1, the Ki was 0.0026 µM.
Work on Cn1cc(CC(=O)NCc2ccc(-c3nn[nH]n3)cc2)c2cc(OCc3ccc4ccccc4n3)ccc21 yielded a Ki of 1.05 µM.
O=C(Nc1cccc2c(=O)cc(C(=O)O)oc12)c1ccc2ccc(OCc3ccc4ccccc4n3)cc2c1 was tested, and the Ki was 0.03 µM.
O=C(O)CCCc1ccc(NC(=O)Cc2ccc(OCc3ccc4ccc(Cl)cc4n3)cc2)cc1 gave a Ki of 0.0048 µM.
In the case of O=C(O)c1ccc2c(ccn2Cc2ccc3ccc(OCc4ccc5ccccc5n4)cc3c2)c1, the Ki is reported as 0.03 µM.
O=C(Cc1ccc(OCc2ccc3ccccc3n2)cc1)Nc1ccc(CCCc2nnn[nH]2)cc1 was tested, and the Ki was 0.088 µM.
Work on CN(C(=O)Cc1ccc(OCc2ccc3ccccc3n2)cc1)c1ccc(CCCC(=O)O)cc1 yielded a Ki of 0.297 µM.
Compound CC(C(=O)Nc1ccc(C(=O)O)cc1)c1ccc2cc(OCc3ccc4ccccc4n3)ccc2c1 (stereo not given) has a Ki of 0.118 µM.
Compound CC(C(=O)NCc1cccc(-c2nnn[nH]2)c1)c1ccc2cc(OCc3ccc4ccccc4n3)ccc2c1 (stereo not given) has a Ki of 0.029 µM.
Compound CC(C(=O)NCc1ccc(C(=O)O)cc1)c1ccc2cc(OCc3ccc4ccccc4n3)ccc2c1 (stereo not given) has a Ki of 0.07 µM.
In the case of O=C(Cc1ccc(OCc2ccc3ccccc3n2)cc1)Nc1ccc(Cc2nnn[nH]2)cc1, the Ki is reported as 0.108 µM.
O=C(O)c1ccc(CCCOc2ccc3ccc(OCc4ccc5ccccc5n4)cc3c2)cc1 gave a Ki of 0.0056 µM.
O=C(O)CCCc1ccc(NC(=O)Cc2cccc(OCc3ccc4ccccc4n3)c2)cc1 was tested, and the Ki was 0.04 µM.
Work on O=C(Nc1ccc(CCCc2nnn[nH]2)cc1)c1ccc(OCc2ccc3ccccc3n2)cc1 yielded a Ki of 0.595 µM.
For CC(C(=O)NCc1ccc(CC(=O)O)cc1)c1ccc2cc(OCc3ccc4ccccc4n3)ccc2c1 (stereo not given), the Ki was 0.134 µM.
With O=C(O)c1ccc(CCNC(=O)c2ccc3ccc(OCc4ccc5ccccc5n4)cc3c2)cc1 the Ki was 0.00105 µM.
O=C(O)c1ccc(CCNC(=O)c2ccc3ccc(OCc4ccc(-c5ccccc5)cn4)cc3c2)cc1 gave a Ki of 0.079 µM.
With O=C(O)c1ccc(OCC(O)COc2ccc3ccc(OCc4ccc5ccccc5n4)cc3c2)cc1 (stereo not given) the Ki was 0.004 µM.
In the case of O=C(Cc1ccc(OCCCCc2ccccc2)cc1)Nc1ccc(CCCc2nnn[nH]2)cc1, the Ki is reported as 2.59 µM.
O=C(O)c1ccc(Cc2noc(-c3ccc4ccc(OCc5ccc6ccccc6n5)cc4c3)n2)cc1 gave a Ki of 0.015 µM.

The compounds below were run against T1, Cysteinyl leukotriene receptor 1 (assay: In vitro binding affinity towards Cysteinyl leukotriene D4 receptor by using [3H]LTD4 binding assay in guinea pig lung membranes; IA means inactive).
Format: cell membranes
O=C(O)c1ccc(CCNC(=O)c2ccc3ccc(OCc4ccc5ccccc5c4)cc3c2)cc1 was tested, and the Ki was “Not Active”.
For Cc1cn(Cc2ccc3ccccc3n2)c2cc(C(=O)NCCc3ccc(C(=O)O)cc3)ccc12, the Ki was “Not Active”.
In the case of O=C(O)c1ccc(CCNC(=O)c2cc(=O)c3ccc(OCc4ccc5ccccc5n4)cc3o2)cc1, the Ki is reported as “Not Active”.

From ChEMBL document CHEMBL1133579, “Derivation of pharmacophore and CoMFA models for leukotriene D(4) receptor antagonists of the quinolinyl(bridged)aryl series” (J Med Chem, 2000)
